# ChEMBL document CHEMBL1201862, “PubChem BioAssay data set” (2004)
# Calls of active or inactive are those of the source.
# How the values were obtained:
# [1] = P. falciparum 3D7-ScDHODH growth inhibitors, dose response, SYBR Green, dry powder samples (AID 1159570); format: functional, cell-based;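 note: parasite growth measured after 72 hours of compound exposure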
# [2] = HepG2 cell cytotoxicity, dose response, cytotoxicity control, plate reader, dry powder samples (AID 1159569); format: functional, cell-based;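 note: inhibitor potency with signal falling toward the positive control level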
# [3] = P. falciparum Dd2 growth inhibitors, dose response, SYBR Green, cherry-picked samples (AID 1159567); format: functional, cell-based
# [4] = P. falciparum Dd2 growth inhibitors, dose response, SYBR Green, dry powder samples (AID 1159566); format: functional, cell-based;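 note: potency for growth inhibition with lower SYBR green DNA signal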
# [5] = HepG2 cell cytotoxicity, dose response, cytotoxicity control, cherry-picked samples (AID 1159577); format: functional, cell-based
# [6] = Plasmodium falciparum Dd2 Sybr green parasite growth Measured in Cell-Based and Microorganism Combination System Using Plate Reader - 2153-01_Inhibitor_Dose_DryPowder_Activity_Set3.; format: functional
# [7] = P. falciparum ATP4 D1247Y mutant growth inhibitors, dose response, NITD609-resistant line, SYBR Green, dry powder (AID 1159571); format: functional, cell-based;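 note: parasites synchronized at ring stage by sorbitol before testing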
# [8] = Luminescent dose response cell-based high throughput screening assay for inhibitors of the Janus kinase 2 mutant JAK2V617F. [Related pubchem assays: 1446 (Primary screen.), 1521 (Confirmation assay.), 1486 (Counter screen.)]; format: functional
# [9] = biological target: Luciferin 4-monooxygenase (Photinus pyralis, UniProt P08659); test: firefly luciferase enzyme inhibitors, dose response, biochemical, luminescence (AID 1891)
# [10] = Luminescence Cell-Based Dose Confirmation HTS to Identify Inhibitors of Platelet Dense Granule Release. [Related pubchem assays: 1663 (Primary HTS), 1678 (Summary of Project)]; format: functional
# [11] = biological target: T1, High affinity choline transporter 1 (Homo sapiens, UniProt Q9GZV3); test: CHT inhibitors, dose response, cell-based, 5-point CRC, membrane potential dye (AID 504840); format: functional
# T1 sequence (Q9GZV3 whole entry): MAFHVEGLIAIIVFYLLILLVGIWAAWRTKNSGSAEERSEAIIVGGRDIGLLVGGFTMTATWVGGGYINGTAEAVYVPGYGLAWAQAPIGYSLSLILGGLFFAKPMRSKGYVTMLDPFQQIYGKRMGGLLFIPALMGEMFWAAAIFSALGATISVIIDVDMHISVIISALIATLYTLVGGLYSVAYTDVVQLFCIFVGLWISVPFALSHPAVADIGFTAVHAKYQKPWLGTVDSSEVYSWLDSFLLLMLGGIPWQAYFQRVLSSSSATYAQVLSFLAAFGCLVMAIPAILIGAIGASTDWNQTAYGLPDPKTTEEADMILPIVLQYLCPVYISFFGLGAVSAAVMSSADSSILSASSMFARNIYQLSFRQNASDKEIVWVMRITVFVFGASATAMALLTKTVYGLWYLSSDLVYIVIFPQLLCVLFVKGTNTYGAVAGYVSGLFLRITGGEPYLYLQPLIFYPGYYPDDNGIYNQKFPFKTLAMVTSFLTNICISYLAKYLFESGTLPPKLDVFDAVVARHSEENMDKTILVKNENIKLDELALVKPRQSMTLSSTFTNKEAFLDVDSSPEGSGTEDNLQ
# [12] = biological target: Bifunctional protein GlmU (Mycobacterium tuberculosis, UniProt P9WMN3); test: Inhibitors of Mycobacterial Glucosamine-1-phosphate acetyl transferase (GlmU). Secondary screen.; design: species or system Mycobacterium tuberculosis H37Rv
# [13] = biological target: Induced myeloid leukemia cell differentiation protein Mcl-1 (Homo sapiens, UniProt Q07820); format: functional
# Induced myeloid leukemia cell differentiation protein Mcl-1, sequence (Q07820 whole entry): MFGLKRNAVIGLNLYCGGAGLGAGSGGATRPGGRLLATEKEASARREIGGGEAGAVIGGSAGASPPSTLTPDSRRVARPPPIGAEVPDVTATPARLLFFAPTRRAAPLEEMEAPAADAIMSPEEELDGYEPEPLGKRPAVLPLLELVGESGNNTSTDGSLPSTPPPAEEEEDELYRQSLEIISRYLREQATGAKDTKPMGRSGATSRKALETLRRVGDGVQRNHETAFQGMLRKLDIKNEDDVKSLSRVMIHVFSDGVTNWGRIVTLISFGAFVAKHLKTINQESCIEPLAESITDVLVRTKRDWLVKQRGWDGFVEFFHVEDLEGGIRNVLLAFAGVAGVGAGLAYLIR
# [14] = biological target: DNA (cytosine-5)-methyltransferase 1 (Homo sapiens, UniProt P26358); test: DNMT1 methyltransferase inhibitors, confirmation, biochemical, fluorescent molecular beacon (AID 602386); format: functional
# DNA (cytosine-5)-methyltransferase 1, sequence (P26358 whole entry): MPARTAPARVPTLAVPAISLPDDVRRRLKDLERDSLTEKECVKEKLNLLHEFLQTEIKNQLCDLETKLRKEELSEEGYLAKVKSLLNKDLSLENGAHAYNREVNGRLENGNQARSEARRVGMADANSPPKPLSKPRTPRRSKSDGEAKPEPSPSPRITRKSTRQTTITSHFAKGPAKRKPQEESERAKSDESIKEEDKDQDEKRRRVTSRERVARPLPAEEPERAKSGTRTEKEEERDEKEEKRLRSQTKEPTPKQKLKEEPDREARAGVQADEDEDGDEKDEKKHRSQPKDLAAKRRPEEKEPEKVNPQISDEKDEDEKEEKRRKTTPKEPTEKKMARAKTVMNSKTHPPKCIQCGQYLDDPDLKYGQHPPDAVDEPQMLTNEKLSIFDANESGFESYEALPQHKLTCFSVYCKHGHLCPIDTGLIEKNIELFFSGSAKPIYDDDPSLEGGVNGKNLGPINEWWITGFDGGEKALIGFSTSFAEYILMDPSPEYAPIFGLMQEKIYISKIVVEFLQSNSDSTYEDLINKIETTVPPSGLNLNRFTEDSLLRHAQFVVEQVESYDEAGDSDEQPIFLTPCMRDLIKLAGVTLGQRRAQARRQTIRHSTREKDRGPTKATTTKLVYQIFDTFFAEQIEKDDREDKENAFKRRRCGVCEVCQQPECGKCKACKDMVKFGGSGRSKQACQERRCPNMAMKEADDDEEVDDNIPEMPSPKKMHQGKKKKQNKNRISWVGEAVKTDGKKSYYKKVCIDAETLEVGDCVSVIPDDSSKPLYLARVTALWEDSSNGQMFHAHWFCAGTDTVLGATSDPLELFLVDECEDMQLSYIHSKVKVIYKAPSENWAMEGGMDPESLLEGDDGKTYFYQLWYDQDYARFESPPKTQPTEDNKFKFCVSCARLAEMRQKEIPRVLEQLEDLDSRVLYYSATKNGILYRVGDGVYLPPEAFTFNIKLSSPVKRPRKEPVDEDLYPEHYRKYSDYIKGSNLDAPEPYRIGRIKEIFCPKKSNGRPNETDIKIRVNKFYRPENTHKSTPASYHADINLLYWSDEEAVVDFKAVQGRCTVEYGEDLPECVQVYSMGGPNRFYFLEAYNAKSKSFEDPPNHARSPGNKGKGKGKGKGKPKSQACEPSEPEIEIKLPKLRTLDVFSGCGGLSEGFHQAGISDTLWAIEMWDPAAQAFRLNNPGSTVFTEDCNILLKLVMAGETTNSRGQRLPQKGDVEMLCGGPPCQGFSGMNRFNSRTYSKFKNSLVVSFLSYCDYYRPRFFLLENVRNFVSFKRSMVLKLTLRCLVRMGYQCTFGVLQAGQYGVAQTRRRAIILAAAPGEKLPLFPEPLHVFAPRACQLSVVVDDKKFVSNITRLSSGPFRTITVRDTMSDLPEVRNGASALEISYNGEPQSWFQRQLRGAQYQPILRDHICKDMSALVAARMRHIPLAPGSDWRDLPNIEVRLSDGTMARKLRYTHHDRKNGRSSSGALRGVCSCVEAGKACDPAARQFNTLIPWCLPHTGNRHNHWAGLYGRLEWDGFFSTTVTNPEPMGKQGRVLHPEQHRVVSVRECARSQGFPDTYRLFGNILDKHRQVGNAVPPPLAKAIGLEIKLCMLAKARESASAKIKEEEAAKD
# [15] = biological target: 26S proteasome non-ATPase regulatory subunit 14 (Homo sapiens, UniProt O00487); test: inhibition of proteasome subunit RPN11 – biochemical, fluorescence polarization, uHTS hits, confirmation (AID 602368); format: functional
# 26S proteasome non-ATPase regulatory subunit 14, sequence (O00487 whole entry): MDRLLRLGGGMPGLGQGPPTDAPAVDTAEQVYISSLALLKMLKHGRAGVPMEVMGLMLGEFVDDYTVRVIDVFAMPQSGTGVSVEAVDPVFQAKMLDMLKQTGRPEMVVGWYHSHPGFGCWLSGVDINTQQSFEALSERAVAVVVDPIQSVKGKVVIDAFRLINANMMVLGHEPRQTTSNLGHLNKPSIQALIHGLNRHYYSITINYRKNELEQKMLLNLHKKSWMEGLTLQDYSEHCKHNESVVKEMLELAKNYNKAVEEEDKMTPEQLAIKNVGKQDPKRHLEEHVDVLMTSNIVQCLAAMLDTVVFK
# [16] = biological target: 72 kDa type IV collagenase (Homo sapiens, UniProt P08253); test: Dose Response validation of uHTS RPN11 inhibitor hits using a MMP-2 Fluorescence assay.; format: functional
# 72 kDa type IV collagenase, sequence (P08253 whole entry): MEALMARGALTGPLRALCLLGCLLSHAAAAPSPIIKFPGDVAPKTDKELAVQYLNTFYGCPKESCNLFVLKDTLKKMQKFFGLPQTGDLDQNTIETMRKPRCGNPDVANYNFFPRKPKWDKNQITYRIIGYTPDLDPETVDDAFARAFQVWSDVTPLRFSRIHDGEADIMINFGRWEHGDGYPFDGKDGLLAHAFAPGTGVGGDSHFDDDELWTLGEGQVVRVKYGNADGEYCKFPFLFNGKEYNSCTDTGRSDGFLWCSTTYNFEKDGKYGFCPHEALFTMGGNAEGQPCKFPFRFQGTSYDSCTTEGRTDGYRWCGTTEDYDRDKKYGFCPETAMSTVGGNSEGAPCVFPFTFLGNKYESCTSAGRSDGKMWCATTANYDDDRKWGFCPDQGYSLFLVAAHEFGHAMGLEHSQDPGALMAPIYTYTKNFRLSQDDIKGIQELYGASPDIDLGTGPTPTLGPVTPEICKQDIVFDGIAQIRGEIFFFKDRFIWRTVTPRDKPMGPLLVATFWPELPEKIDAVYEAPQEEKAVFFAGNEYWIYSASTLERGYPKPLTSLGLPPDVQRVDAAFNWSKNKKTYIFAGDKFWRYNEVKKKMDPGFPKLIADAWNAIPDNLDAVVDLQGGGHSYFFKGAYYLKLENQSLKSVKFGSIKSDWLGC
# Prothrombin = Prothrombin (Bos taurus, UniProt P00735); test: thrombin inhibition, dose response, biochemical, fluorescence polarization, uHTS hits (AID 602369); format: functional
# [17] = biological target: T2, Rac GTPase-activating protein 1 (Homo sapiens, UniProt Q9H0H5); test: MgcRacGAP GTPase-activating activity inhibitors, confirmation, biochemical, ADP Hunter fluorescence, primary and confirmatory (AID 624330); format: functional
# T2 sequence (Q9H0H5 whole entry): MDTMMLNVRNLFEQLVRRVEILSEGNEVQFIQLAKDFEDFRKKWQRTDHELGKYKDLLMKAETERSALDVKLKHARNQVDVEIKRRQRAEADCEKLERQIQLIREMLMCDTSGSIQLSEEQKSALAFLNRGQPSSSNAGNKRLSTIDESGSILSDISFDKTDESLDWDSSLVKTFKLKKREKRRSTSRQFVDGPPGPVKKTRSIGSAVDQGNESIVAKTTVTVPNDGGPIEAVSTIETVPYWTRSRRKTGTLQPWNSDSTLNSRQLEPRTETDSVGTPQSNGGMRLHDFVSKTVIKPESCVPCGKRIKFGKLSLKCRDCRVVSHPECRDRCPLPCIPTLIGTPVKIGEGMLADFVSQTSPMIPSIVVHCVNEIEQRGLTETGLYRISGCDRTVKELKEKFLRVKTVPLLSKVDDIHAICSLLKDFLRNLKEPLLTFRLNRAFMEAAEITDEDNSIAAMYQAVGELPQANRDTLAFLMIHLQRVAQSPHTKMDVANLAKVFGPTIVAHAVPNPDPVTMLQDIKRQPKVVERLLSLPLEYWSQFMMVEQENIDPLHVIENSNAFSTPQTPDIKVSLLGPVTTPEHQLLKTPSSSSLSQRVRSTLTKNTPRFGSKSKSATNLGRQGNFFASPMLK
# [18] = biological target: T3, Histone-lysine N-methyltransferase NSD2 (Homo sapiens, UniProt O96028); format: biochemical
# T3 sequence (O96028 whole entry): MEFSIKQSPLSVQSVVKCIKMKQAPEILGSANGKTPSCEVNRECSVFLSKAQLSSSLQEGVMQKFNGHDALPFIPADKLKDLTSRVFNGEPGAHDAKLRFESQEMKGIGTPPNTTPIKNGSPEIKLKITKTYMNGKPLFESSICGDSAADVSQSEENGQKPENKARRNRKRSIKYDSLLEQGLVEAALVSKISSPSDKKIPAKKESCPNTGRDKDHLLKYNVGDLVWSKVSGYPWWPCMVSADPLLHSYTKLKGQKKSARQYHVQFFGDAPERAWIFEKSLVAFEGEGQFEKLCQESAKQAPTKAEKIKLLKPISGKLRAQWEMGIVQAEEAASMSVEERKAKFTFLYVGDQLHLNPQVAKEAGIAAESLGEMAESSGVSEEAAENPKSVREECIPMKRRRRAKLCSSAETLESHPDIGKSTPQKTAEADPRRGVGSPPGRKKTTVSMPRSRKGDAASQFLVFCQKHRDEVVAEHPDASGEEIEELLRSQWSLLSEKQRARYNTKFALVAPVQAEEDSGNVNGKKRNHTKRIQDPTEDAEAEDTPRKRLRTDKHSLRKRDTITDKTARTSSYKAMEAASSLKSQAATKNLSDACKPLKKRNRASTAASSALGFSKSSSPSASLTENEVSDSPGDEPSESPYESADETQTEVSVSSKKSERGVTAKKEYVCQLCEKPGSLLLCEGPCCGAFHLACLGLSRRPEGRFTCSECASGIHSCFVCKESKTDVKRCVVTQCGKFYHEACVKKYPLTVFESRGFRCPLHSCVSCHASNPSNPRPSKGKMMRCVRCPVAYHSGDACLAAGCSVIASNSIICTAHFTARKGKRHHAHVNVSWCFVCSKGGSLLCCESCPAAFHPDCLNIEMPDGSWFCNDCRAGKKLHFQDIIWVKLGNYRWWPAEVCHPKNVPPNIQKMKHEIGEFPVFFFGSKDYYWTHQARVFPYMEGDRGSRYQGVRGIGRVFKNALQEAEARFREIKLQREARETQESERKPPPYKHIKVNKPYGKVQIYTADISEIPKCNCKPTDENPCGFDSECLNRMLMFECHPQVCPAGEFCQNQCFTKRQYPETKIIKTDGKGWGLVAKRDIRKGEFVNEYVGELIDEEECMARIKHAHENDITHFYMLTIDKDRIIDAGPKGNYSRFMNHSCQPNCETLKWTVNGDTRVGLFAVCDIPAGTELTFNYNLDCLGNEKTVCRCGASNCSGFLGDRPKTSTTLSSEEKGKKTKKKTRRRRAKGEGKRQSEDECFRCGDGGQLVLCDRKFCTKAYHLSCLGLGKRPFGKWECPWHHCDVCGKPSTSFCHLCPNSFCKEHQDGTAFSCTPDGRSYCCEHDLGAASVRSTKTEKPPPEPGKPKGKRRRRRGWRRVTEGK
# [19] = test system: Streptococcus sp. 'group A'; test: growth inhibition of control SK(-) GAS strain, dose response, counter-screen for streptokinase expression inhibitor project, luminescence, kanamycin, BacTiterGlo, confirmation (AID 1900); format: functional, organism-based
# Streptokinase A = biological target: T4, Streptokinase A (Streptococcus pyogenes serotype M1, UniProt P10520); test: S. pyogenes streptokinase expression inhibitors, potency, dose response, plasminogen activation absorbance, OD405 (AID 1914); format: functional, Streptococcus pyogenes M1 GAS;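 note: secreted streptokinase activity via plasminogen activation per viability signal from cell pellet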
# T4 sequence (P10520 whole entry): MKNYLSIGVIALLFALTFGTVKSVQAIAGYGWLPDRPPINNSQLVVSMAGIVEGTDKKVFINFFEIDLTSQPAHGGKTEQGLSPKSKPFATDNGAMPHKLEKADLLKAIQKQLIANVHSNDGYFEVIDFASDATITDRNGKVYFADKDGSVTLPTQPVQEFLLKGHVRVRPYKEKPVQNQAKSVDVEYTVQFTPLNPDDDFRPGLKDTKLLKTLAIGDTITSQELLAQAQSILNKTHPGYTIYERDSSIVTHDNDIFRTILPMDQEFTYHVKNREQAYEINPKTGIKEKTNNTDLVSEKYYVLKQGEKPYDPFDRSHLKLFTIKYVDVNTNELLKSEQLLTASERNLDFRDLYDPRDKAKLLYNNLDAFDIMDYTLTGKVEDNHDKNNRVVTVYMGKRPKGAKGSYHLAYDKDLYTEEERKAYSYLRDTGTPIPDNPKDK
# Streptococcus = test: Group A Streptococcus viability loss, dose response, counter-screen for streptokinase expression inhibitor project, luminescence, BacTiterGlo (AID 1915); format: functional, organism-based;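 note: potency for reduction of bacterial viability or growth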
# [20] = biological target: T5, Probable nicotinate-nucleotide adenylyltransferase (Staphylococcus aureus (strain N315), UniProt P65502); format: functional, Staphylococcus aureus subsp. aureus N315;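 for IC50 Mean: confirmatory dose-response retesting of NadD inhibitor hits first found in an ultra-high-throughput screen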
# T5 sequence (P65502 whole entry): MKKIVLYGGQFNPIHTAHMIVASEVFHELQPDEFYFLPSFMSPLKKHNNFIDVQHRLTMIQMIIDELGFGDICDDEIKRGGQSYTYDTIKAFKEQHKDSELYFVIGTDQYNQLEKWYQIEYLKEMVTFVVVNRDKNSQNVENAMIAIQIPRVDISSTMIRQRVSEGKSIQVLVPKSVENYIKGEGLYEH
# [21] = biological target: T5, Probable nicotinate-nucleotide adenylyltransferase; format: functional, Staphylococcus aureus subsp. aureus N315; conditions: read-out: IC50_Mean
# [22] = half-maximal inhibitory concentration for glucagon-like peptide-1 release, STC-1 cell line, dose-response (AID 1117345); format: functional, cell-based
# [23] = Glucagon-like peptide 1 release potency, NCI-H716 cell line, dose-response, half-maximal inhibitory concentration (AID 1117344); format: functional, cell-based
# NADPH oxidase 1 = NADPH oxidase 1 (Homo sapiens, UniProt Q9Y5S8); test: Late-stage luminescence-based cell-based dose response assay to identify inhibitors of NADPH oxidase 1 (NOX1): Purchased analogs 2.; format: functional
# NADPH oxidase 1, sequence (Q9Y5S8 whole entry): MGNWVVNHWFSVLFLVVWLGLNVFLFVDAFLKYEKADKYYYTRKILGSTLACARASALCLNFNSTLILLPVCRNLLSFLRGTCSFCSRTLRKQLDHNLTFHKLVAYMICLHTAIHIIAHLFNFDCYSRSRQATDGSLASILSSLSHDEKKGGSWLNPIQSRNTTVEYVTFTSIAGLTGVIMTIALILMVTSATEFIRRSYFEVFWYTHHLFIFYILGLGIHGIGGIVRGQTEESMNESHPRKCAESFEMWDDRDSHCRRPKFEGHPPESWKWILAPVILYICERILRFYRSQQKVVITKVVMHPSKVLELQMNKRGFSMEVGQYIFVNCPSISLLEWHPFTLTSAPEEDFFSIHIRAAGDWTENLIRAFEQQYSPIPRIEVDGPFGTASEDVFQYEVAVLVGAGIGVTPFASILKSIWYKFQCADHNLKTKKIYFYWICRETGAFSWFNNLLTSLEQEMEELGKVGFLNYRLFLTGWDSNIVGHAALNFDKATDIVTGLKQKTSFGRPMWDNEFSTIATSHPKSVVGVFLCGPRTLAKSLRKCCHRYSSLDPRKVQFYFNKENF
# [24] = biological target: E3 ubiquitin-protein ligase Mdm2 (Homo sapiens, UniProt Q00987); test: enhancers of MDM2-luciferase reporter signal, concentration-effect titration, project on inhibitors of MDM2 ubiquitin ligase, cellular assay, luminescent readout, 384-well plate format (AID 1394); format: functional;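 note: MDM2 E3 inhibitors raise luminescence so EC50 is for signal enhancement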
# E3 ubiquitin-protein ligase Mdm2, sequence (Q00987 whole entry): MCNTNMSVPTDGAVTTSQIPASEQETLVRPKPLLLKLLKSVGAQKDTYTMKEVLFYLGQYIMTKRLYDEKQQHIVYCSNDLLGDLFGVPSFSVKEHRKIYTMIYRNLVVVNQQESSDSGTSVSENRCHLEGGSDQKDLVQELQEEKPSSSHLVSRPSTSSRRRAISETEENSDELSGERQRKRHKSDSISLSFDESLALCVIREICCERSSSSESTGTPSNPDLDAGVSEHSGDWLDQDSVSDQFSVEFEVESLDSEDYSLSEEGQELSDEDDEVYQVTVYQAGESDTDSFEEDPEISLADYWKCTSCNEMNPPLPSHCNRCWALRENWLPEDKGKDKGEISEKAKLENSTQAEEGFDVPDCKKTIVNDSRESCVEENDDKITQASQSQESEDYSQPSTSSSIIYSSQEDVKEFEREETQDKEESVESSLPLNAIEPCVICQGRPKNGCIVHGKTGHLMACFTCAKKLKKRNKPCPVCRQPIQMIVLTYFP
# [25] = biological target: Sphingosine 1-phosphate receptor 2 (Homo sapiens, UniProt O95136); test: Dose Response Cell Based Assay for Agonists of the S1P2 Receptor. [Related pubchem assays: 729, 736, 843 ]; format: functional
# Sphingosine 1-phosphate receptor 2, sequence (O95136 whole entry): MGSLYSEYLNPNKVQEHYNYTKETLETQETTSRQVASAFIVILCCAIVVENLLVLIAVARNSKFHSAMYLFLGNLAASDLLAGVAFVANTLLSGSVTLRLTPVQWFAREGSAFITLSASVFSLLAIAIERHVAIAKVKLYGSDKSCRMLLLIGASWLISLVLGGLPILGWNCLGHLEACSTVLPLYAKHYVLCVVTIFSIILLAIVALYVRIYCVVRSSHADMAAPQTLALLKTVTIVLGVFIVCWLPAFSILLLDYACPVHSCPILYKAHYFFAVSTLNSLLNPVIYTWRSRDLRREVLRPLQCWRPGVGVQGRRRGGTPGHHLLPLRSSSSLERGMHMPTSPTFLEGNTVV
# [26] = M. tuberculosis growth inhibition, HTS (AID 449762); format: functional
# [27] = biological target: Diphosphomevalonate decarboxylase (Streptococcus pneumoniae serotype 2 (strain D39 / NCTC 7466), UniProt Q9FD53); test: S. pneumoniae DPM-DC inhibition retest, confirmation, biochemical, cuvette format, coupled NADH fluorescence (AID 1028); format: functional
# Diphosphomevalonate decarboxylase, sequence (Q9FD53 whole entry): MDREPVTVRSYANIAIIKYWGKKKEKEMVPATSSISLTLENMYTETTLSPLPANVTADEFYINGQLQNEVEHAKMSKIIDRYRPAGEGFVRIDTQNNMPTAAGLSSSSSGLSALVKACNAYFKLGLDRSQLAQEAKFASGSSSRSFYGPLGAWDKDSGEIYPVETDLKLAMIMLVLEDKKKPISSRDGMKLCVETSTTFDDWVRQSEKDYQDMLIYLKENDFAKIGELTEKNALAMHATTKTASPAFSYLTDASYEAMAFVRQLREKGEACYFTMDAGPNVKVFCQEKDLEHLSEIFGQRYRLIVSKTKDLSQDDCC
structure (smiles),measurement,setting,value
CC(C)NC(=O)N1[C@H](C#N)[C@H](c2ccc(-c3ccc(F)cc3)cc2)[C@H]1CO,AC50,[1],18.2 µM (active)
same,AC50,[2],79.5 µM (active)
same,AC50,[3],0.858 µM (active)
same,AC50,[4],0.442 µM (active)
same,AC50,[5],25.6 µM (active)
same,AC50,[6],2.93 µM (active)
same,AC50,[7],0.469 µM (active)
COc1cc2c(cc1OC)-c1cc(N3CCCc4ccccc43)nc(=O)n1CC2,IC50,[8],> 40 µM (not active)
same,EC50,[9],> 112 µM (not active)
same,EC50,[10],3.35 µM (active)
same,IC50,[11],13.2 µM (active)
Cc1ccc(N2C(=O)NC(=O)/C(=C/c3ccoc3)C2=O)cc1,IC50,[12],66.5 µM (active)
same,IC50,[13],4.84 µM (active)
same,IC50,[14],4 µM (active)
same,IC50,[15],6.76 µM (active)
same,IC50,[16],3.45 µM (active)
same,IC50,Prothrombin,84.7 µM (active)
same,IC50,[17],55.7 µM (active)
same,AC50,[18],7.88 µM (active)
CC(C)(O)c1ccccc1CC[C@@H](SCC1(CC(=O)O)CC1)c1cccc(/C=C/c2ccc3ccc(Cl)cc3n2)c1 [MONTELUKAST SODIUM],EC50,[19],1.19 µM (active)
same,EC50,Streptokinase A,3.41 µM (active)
same,EC50,Streptococcus,7.96 µM (active)
same,IC50,[20],6.18 µM (active)
same,IC50,[21],20.6 µM (active)
same,IC50,[22],> 40 µM (inactive)
same,IC50,[23],20.7 µM (inactive)
O=C1Nc2cc(F)ccc2/C1=N/Nc1c(F)c(F)nc(F)c1F,IC50,NADPH oxidase 1,> 17 µM (not active)
Cc1cc2cc(C)c(SCC(=O)NCc3ccco3)nc2cc1C,EC50,[24],489 µM (not active)
O=C1SC(c2ccccc2)=N/C1=C/c1ccco1,EC50,[25],> 50 µM (not active)
C/C(=C\C(=O)c1ccccc1)Nc1ccc(Cl)c(Br)c1,IC50,[26],> 100 µM (active)
CCCN(CCC)C(=O)c1ccc(-n2sc3ccccc3c2=O)cc1,IC50,[27],7.64 µM (active)
